Here are results for 1 compound from article PMC7011955, “Synthesis and biological evaluation of certain hydrazonoindolin-2-one derivatives as new potent anti-proliferative agents” (Journal of Enzyme Inhibition and Medicinal Chemistry, 2018).

Entries after “also recorded” stand apart in the source; their conditions may differ. Where two headings read alike, the source gives them in different places. Bounds are passed on as bounds.

By IC50 is commonly meant the concentration needed to halve the response being measured. As usually defined, the inhibition is the percentage by which the read-out fell short of the control. As usually defined, the melting point is the temperature, or range, at which the solid turns liquid.

For data set [1], the system named is phosphorylated retinoblastoma (Rb) protein in A-549 cells. The data set can be described thus: Immunofluorescent imaging of phosphorylated Rb protein. The format is cell-based, human. The note with it: for IC50: Homo sapiens, A549. How it is done: (§1) Cell cycle effects of the synthesised compounds 7b and 10e were determined adopting the reported procedures[14]^,[15].
(§2) In this study, cancer cells derived from lung adenocarcinoma (A-549) were used to evaluate the effects of compounds 7b and 10e on various aspects of the cell cycle progression. Both immunofluorescent imaging of phosphorylated Rb protein and total DNA content of each cell were explored to determine the activity of compounds 7b and 10e over a range of concentrations less than 100 nM to 50 µM (Figures 3–5).

A further data set has as its system Breast MCF-10A cells. The data set can be described thus: Cell growth inhibition, non-tumorigenic MCF-10A. The format is cell-based. The note with it: Homo sapiens, maximum 25 µM, quadruplicate. How it is done:
(§3) The anti-proliferative activity of the title compounds 3a-e, 5a-e, 7a-c, and 10a-l towards cancer cell lines, normal cell lines, and multidrug-resistant lung cancer NCI-H69AR cell line was determined using CellTiter-Glo™ Luminescent cell viability assay according to the previously published procedures[14]^,[15].
(§4) The cell growth inhibitory activity of compounds 7b and 10e was examined towards three non-tumorigenic cell lines to estimate their selectivity for tumor cells. A-549 human non-small cell lung cancer (NSCLC) cell line was included in the assay for comparison. […] IEC-6 cells derived from rat intestine show morphologic and karyotypic features of normal intestinal epithelial cells. Fibroblasts derived from embryonic tissue from mice (Swiss-3t3) are both non-tumorigenic and contact inhibited. Compounds 7b and 10e were tested quadruplicate at maximum concentrations of 25 µM, with subsequent 10 serially diluted concentrations.

For data set [2], the system named is colon cancer HT-29 cell line. The data set can be described thus: CellTiter-Glo Luminescent cell viability assay, anti-proliferative activity, HT-29. The note with it: Homo sapiens, mean ± SD of four separate experiments. Type of data set: cell-based.
Data set [3] deals with A-549, ZR-75 and HT-29 cell lines. The data set is described as follows: Average anti-proliferative activity over the three cancer cell lines. Type of data set: cell-based, human. As to conditions: average over A-549, ZR-75, HT-29. How it is done: as §3
(§5) The cancer cell growth inhibitory activity of the synthesised 25 compounds 3a-e, 5a-e, 7a-c, and 10a-l was evaluated in vitro towards three human cancer cell lines, namely lung cancer A-549, human colon cancer HT-29, and breast cancer ZR-75 cell lines using CellTiter-Glo™ Luminescent cell viability assay. Sunitinib was included in this assay as a reference drug.
(§6) The prepared hydrazonoindolin-2-ones were first evaluated at preliminary anti-proliferative assay against the three cancer cell lines in quadruplicate at a single concentration of 30 µM. The data presented as percentage growth inhibition (GI%) caused by the test compounds (Table 1).

The subject of data set [4] is A-549 cells. The data set is described as follows: Reduction in total cell number, DAPI labeling and imaging cytometry. Type of data set: cell-based. As to conditions: Homo sapiens, A549. The protocol: as §1, §2
Figure 3. Effects on number and cell cycle distribution. A-549 cells were treated with dose curve. Compound 7b (left) or 10e (right). […]

Data set [5] deals with breast cancer ZR-75 cell line. The data set can be described thus: CellTiter-Glo Luminescent cell viability assay, anti-proliferative activity, ZR-75. Type of data set: cell-based, human. As to conditions: Homo sapiens, ZR75, mean ± SD of four separate experiments. A general note: In ATP-based viability assays light output follows the ATP content of the culture.
In data set [6] the test system is colon cancer HT-29 cell line. The data set is described as follows: CellTiter-Glo Luminescent cell viability assay, anti-proliferative activity, HT-29. The format is cell-based, human. As to conditions: Homo sapiens, HT-29; 30 µM single concentration, quadruplicate; read-out: Growth inhibition % HT-29. How it is done:
as §3, §5, §6

The subject of the next data set is Intestine IEC-6 cells. The data set is described as follows: Cell growth inhibition, non-tumorigenic IEC-6. The format is cell-based. The note with it: Rattus norvegicus, maximum 25 µM, quadruplicate. The protocol:
as §3, §4

In data set [7] the test system is A-549 cells. The data set is described as follows: Cell cycle distribution by DNA content. The format is cell-based, human. How it is done: as §1, §2
Figure 3. Effects on number and cell cycle distribution. A-549 cells were treated with dose curve. Compound 7b (left) or 10e (right). Cell number per cell cycle was determined by DNA content by DAPI fluorescent labeling and imaging cytometry following 48 h treatment.

Data set [8] concerns NCI-H69AR cell line (expresses ABCC1 efflux pump). The data set can be described thus: Growth inhibition of multidrug resistant lung cancer cell line. The format is cell-based. How it is done:
as §3
The anti-proliferative activity of compounds 7b and 10e was evaluated towards multidrug resistant lung cancer cell line (NCI-H69AR), which expresses the ABCC1 efflux pump protein. […] Furthermore, the H69AR cells manifested a lesser degree of resistance to the reference drug, Sunitinib (1.9-fold less sensitive).

For data set [9], the system named is Fibroblast Swiss-3t3 cells. The data set can be described thus: Cell growth inhibition, non-tumorigenic Swiss-3t3. Type of data set: cell-based, mice. As to conditions: Mus musculus, maximum 25 µM, quadruplicate. How it is done: as §3, §4
Data set [10] has as its system breast cancer ZR-75 cell line. The data set is described as follows: CellTiter-Glo Luminescent cell viability assay, anti-proliferative activity, ZR-75. As to conditions: Homo sapiens, ZR75; 30 µM single concentration, quadruplicate; read-out: Growth inhibition % ZR-75. The format is cell-based. How it is done:
as §3, §5, §6

Data set [11] has as its system lung cancer A-549 cell line. The data set is described as follows: CellTiter-Glo Luminescent cell viability assay, anti-proliferative activity, A-549. Type of data set: cell-based, human. The note with it: Homo sapiens. How it is done: as §3, §5, §6
Data set [12] relates to IEC-6, MCF-10A, Swiss-3t3 vs A-549 cell lines. The data set can be described thus: Mean tumor selectivity index, non-tumorigenic lines vs A-549. As to conditions: non-tumorigenic IEC-6, MCF-10A. Type of data set: cell-based.
Text: as §4

In turn, `O=C1Nc2ccc(Cl)cc2C1=NN=Cc1ccn[nH]1` [Compound 7b, 3-(((1H-pyrazol-5-yl)methylene)hydrazono)-5-chloroindolin-2-one] yielded a melting point of over 300 °C. In addition, the “levels of phosphorylated Rb protein” value in data set [1] (A-549, less than 100 nM to 50 µM) is “significantly reduced in a dose-dependent manner”. For the same compound, the IC50 in [1] (A-549, 24 h treatment, read-out: IC50 for reduction in Rb phosphorylation, 24 h) turned out to be 12.1 ± 0.6 µM. Moreover, in data set [1] (A-549, 48 h treatment, read-out: IC50 for reduction in Rb phosphorylation, 48 h), the IC50 came to 13.6 ± 0.6 µM. In the data set on Breast MCF-10A cells, this compound returned an IC50 of 3.42 ± 0.45 µM. Half-maximal inhibition in data set [2] (IC50) was put at 2.75 ± 0.31 µM. Also, the “Average growth inhibition %” value in data set [3] (30 µM) was found to be 89.6%. For the same compound, the inhibition at 30 µM in data set [3] (Homo sapiens, 30 µM, read-out: Average growth inhibition %) was over 80%. It took 2.14 µM to reach half-maximal inhibition in data set [3] (Homo sapiens) (IC50). In addition, the IC50 with A-549 cells [4] (A-549, 24 h treatment, read-out: IC50 for reductions in the total cell number, 24 h) turned out to be 12.7 ± 13.6 µM. In addition, the IC50 in the data set on A-549 cells [4] (A-549, 48 h treatment, read-out: IC50 for reductions in the total cell number, 48 h) amounted to 8.08 ± 0.95 µM. Further, the midpoint of inhibition in data set [5], the IC50, lay at 1.37 ± 0.23 µM. Moreover, in data set [6], the inhibition at 30 µM turned out to be 94.9 ± 1.8%. For the same compound, in the data set on Intestine IEC-6 cells, the IC50 amounted to 8.7 ± 4.32 µM. The Cell cycle effects entry in the data set with A-549 cells [7] was “decrease in the percentage of cells in the G1 phase of the cell cycle with corresponding increase in the G2/M-phases; also recorded: G1 decreased and G2/M-phases increased”. For the same compound, inhibition in [8] was half-maximal at 16 µM (IC50). In addition, half-maximal inhibition in data set [9] (IC50) was put at 6.85 ± 0.76 µM. Besides, the inhibition at 30 µM in [10] was determined as 82.3 ± 15.2%. Besides, the IC50 in [11] (A549, mean ± SD of four separate experiments, read-out: IC50 A-549) amounted to 2.29 ± 0.21 µM. The IC50 in data set [11] (A549, selectivity assay, maximum 25 µM, quadruplicate, read-out: IC50 NSCLC A-549) amounted to 3.84 ± 0.67 µM. Besides, the IC50 in data set [11] (A549, sensitive line in comparison with resistant NCI-H69AR, read-out: IC50 Sensitive A-549) was 3.8 ± 0.67 µM. The inhibition at 30 µM in data set [11] (A549, 30 µM single concentration, quadruplicate, read-out: Growth inhibition % A-549) came to 91.5 ± 1.3%. For the same compound, the Mean tumor selectivity in data set [12] is recorded as 1.6.
